Test results reported in patent US20250312258A1, “2,3-PYRROLIDINEDIONE CONJUGATES AND METHODS OF USING THEREOF” (North Carolina State University, priority 2022, published 2025).
≈ marks a conversion by molar mass, not a printed value. Like-named read-outs stand apart in the source and are kept apart here.

Tests used:
MRSA = experiment: MIC against MRSA strain panel; type: cell-based; details: Staphylococcus aureus, the 4th table, read-out: MIC
S. aureus 29213 = experiment: Broth microdilution MIC, S. aureus 29213; type: cell-based, Staphylococcus aureus; details: Staphylococcus aureus
MSSA = experiment: MIC against MSSA strain panel; type: cell-based; details: Staphylococcus aureus, the 4th table, read-out: MIC
ATCC 29212 E. faecalis = experiment: MIC against ATCC 29212 E. faecalis; type: cell-based; details: Enterococcus faecalis, ATCC29212, ATCC 29212 E. faecalis, read-out: MIC
Group A Strep = experiment: MIC against Group A Strep strain panel; type: cell-based; details: read-out: MIC
VRSA = experiment: MIC against VRSA (Table 2); type: cell-based; details: Staphylococcus aureus, read-out: MIC (VRSA)
E. coli = experiment: MIC against E. coli strains; type: cell-based; details: the 4th table
VRE = experiment: MIC / in vitro activity against VRE strain panel; type: cell-based, Enterococcus spp.; details: Enterococcus, VRE, read-out: MIC

MIC (MRSA; AR-978 MRSA): 1 µg/mL (≈ 2.42 µM)
MIC (MRSA; AR-979 MRSA): 0.5 µg/mL (≈ 1.21 µM)
MIC (MRSA; AR-993 MRSA): 1 µg/mL (≈ 2.42 µM)
MIC (MRSA; AR-997 MRSA): 1 µg/mL (≈ 2.42 µM)
MIC (S. aureus 29213; 29213, read-out: MIC (S. aureus 29213)): 0.25 to 0.5 µg/mL (≈ 0.605 to 1.21 µM)
MIC (S. aureus 29213; ATCC 29213 / MRSA, ATCC 29213 MRSA, the 4th table, read-out: MIC): 1 µg/mL (≈ 2.42 µM)
MIC (S. aureus 29213; ATCC 29213 / MRSA, ATCC 29213 MRSA, the 5th table, read-out: MIC): 1 µg/mL (≈ 2.42 µM)
MIC (MSSA; VGP16-94 MSSA): 0.5 µg/mL (≈ 1.21 µM)
MIC (MSSA; VGP16-95 MSSA): 1 µg/mL (≈ 2.42 µM)
MIC (MSSA; VGP16-96 MSSA): 0.5 µg/mL (≈ 1.21 µM)
MIC (MSSA; VGP16-97 MSSA): 0.5 µg/mL (≈ 1.21 µM)
MIC (MSSA; VGP16-98 MSSA): 0.5 µg/mL (≈ 1.21 µM)
MIC (MSSA; VGP16-99 MSSA): 1 µg/mL (≈ 2.42 µM)
MIC (MSSA; VGP16-100 MSSA): 1 µg/mL (≈ 2.42 µM)
MIC (MSSA; VGP16-101 MSSA): 1 µg/mL (≈ 2.42 µM)
MIC (MSSA; VGP16-116 MSSA): 1 µg/mL (≈ 2.42 µM)
MIC (MSSA; VGP16-117 MSSA): 1 µg/mL (≈ 2.42 µM)
MIC (ATCC 29212 E. faecalis; the 4th table): 1 µg/mL (≈ 2.42 µM)
MIC (ATCC 29212 E. faecalis; the 6th table): 4 µg/mL (≈ 9.67 µM)
MIC (Group A Strep; 2007-11 Group A Strep, the 8th table): 0.25 µg/mL (≈ 0.605 µM)
MIC (Group A Strep; 2007-28 Group A Strep, the 8th table): < 0.125 µg/mL
MIC (Group A Strep; 2007-49 Group A Strep, the 8th table): ≤ 0.125 µg/mL
MIC (Group A Strep; 2007-73 Group A Strep, the 8th table): ≤ 0.125 µg/mL
MIC (Group A Strep; 2007-107 Group A Strep, the 8th table): 0.25 µg/mL (≈ 0.605 µM)
MIC (Group A Strep; 2007-1101 Group A Strep, the 8th table): ≤ 0.125 µg/mL
MIC (Group A Strep; 2008-06 Group A Strep, the 8th table): ≤ 0.125 µg/mL
MIC (Group A Strep; 2008-45 Group A Strep, the 8th table): ≤ 0.125 µg/mL
MIC (Group A Strep; 2008-818 Group A Strep, CA-MHB w/5% LHB, the 4th table): ≤ 0.125 µg/mL
MIC (Group A Strep; 2008-1565 Group A Strep, the 8th table): 0.25 µg/mL (≈ 0.605 µM)
MIC (Group A Strep; 2008-1692 Group A Strep, the 8th table): 0.25 µg/mL (≈ 0.605 µM)
MIC (Group A Strep; 2008-1732 Group A Strep, CA-MHB w/5% LHB, the 4th table): ≤ 0.125 µg/mL
MIC (Group A Strep; 2009-8 Group A Strep, the 8th table): 0.25 µg/mL (≈ 0.605 µM)
MIC (Group A Strep; 2009-37 Group A Strep, CA-MHB w/5% LHB, the 4th table): ≤ 0.125 µg/mL
MIC (Group A Strep; 2009-106 Group A Strep, the 8th table): 0.25 µg/mL (≈ 0.605 µM)
MIC (Group A Strep; 2009-109 Group A Strep, the 8th table): ≤ 0.125 µg/mL
MIC (Group A Strep; 2009-114 Group A Strep, the 8th table): 0.25 µg/mL (≈ 0.605 µM)
MIC (Group A Strep; 2009-136 Group A Strep, the 8th table): ≤ 0.125 µg/mL
MIC (VRSA): 2 µg/mL (≈ 4.84 µM)
MIC (E. coli; AR-137 E. coli): >64 µg/mL
MIC (E. coli; Escherichia coli, ATCC25922, ATCC 25922 E. coli, read-out: MIC): > 64 µg/mL
MIC (E. coli; Escherichia coli, AR-451 E. coli, read-out: MIC): > 64 µg/mL
MIC (VRE; 1593 (VRE), the 3rd table): 32 µg/mL (≈ 77.4 µM)
MIC (VRE; 1593 VRE, the 4th table): 32 µg/mL (≈ 77.4 µM)
MIC (VRE; 1751 (VRE), the 3rd table): 16 µg/mL (≈ 38.7 µM)
MIC (VRE; 1751 VRE, the 6th table): 16 µg/mL (≈ 38.7 µM)
MIC (VRE; 1772 VRE, the 6th table): 32 µg/mL (≈ 77.4 µM)
MIC (VRE; 1946 VRE, the 6th table): 32 µg/mL (≈ 77.4 µM)
MIC (VRE; 2059 VRE, the 6th table): 32 µg/mL (≈ 77.4 µM)
MIC (VRE; 2431 (VRE), the 3rd table): 32 µg/mL (≈ 77.4 µM)
MIC (VRE; 2431 VRE, the 6th table): 32 µg/mL (≈ 77.4 µM)
MIC (VRE; 2574 VRE, the 6th table): 32 µg/mL (≈ 77.4 µM)
MIC (VRE; 3053 VRE, the 6th table): 32 µg/mL (≈ 77.4 µM)
MIC (VRE; 3183 (VRE), the 3rd table): 16 µg/mL (≈ 38.7 µM)
MIC (VRE; 3183 VRE, the 6th table): 16 µg/mL (≈ 38.7 µM)
MIC (VRE; 3190 VRE, the 6th table): 32 µg/mL (≈ 77.4 µM)
MIC (VRE; 3191 VRE, the 6th table): 32 µg/mL (≈ 77.4 µM)
MIC (VRE; 3222 (VRE, the 3rd table)): 16 µg/mL (≈ 38.7 µM)
MIC (VRE; 3222 VRE, the 6th table): 16 µg/mL (≈ 38.7 µM)
MIC (VRE; 3235 VRE, the 6th table): 16 µg/mL (≈ 38.7 µM)
MIC (VRE; 3239 VRE, the 6th table): 32 µg/mL (≈ 77.4 µM)
MIC (VRE; 3241 VRE, the 6th table): 32 µg/mL (≈ 77.4 µM)
MIC (VRE; 3623 VRE, the 6th table): 32 µg/mL (≈ 77.4 µM)
SMILES: CCC1C(c2ccc(C(F)(F)F)cc2)=C(O)C(=O)N1CCCNCCCCNC (centres unmarked) [Compound 8]
